Results taken from PubChem BioAssay AID330 (DTP/NCI, 2004).
Values joined by “and” are separate entries in the source; they are usually repeats but may differ in a detail not shown here. Identical values can stand only once. Toxic doses and inconclusive results are not listed. How the source made its calls: active means survival T/C of 150% or more; inactive means T/C below 125% in these data.

System: P388 leukemia ip, CD2F1 mice, survival T/C
Assay: NCI In Vivo Anticancer Drug Screen. Data for tumor model P388 Leukemia (intraperitoneal) in CD2F1 (CDF1) mice
Details: endpoint: median survival time, higher = longer survival
Outline: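 Mice carrying the transplanted tumor received test compound or vehicle. Survival was recorded in each group, and the value is the treated-group measurement divided by that of the vehicle-treated control group.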

[1] = dose: 25.0 mg/kg/injection, schedule: Q01DX005 (ip), vehicle: Klucel (hydroxypropylcellulose) (HPC)
[2] = dose: 50.0 mg/kg/injection, schedule: Q01DX005 (ip), vehicle: Klucel (hydroxypropylcellulose) (HPC)
[3] = dose: 15.0 mg/kg/injection, schedule: Q01DX005 (ip), vehicle: saline with Tween-80
[4] = dose: 50.0 mg/kg/injection, schedule: Q01DX005 (ip), vehicle: saline with Tween-80
[5] = dose: 100.0 mg/kg/injection, schedule: Q01DX005 (ip), vehicle: saline with Tween-80
[6] = dose: 50.0 mg/kg/injection, schedule: Q01DX009 (ip), vehicle: saline with Tween-80
[7] = dose: 100.0 mg/kg/injection, schedule: Q01DX009 (ip), vehicle: saline with Tween-80
[8] = dose: 200.0 mg/kg/injection, schedule: Q01DX009 (ip), vehicle: saline with Tween-80
[9] = dose: 200.0 mg/kg/injection, schedule: Q01DX005 (ip), vehicle: saline with Tween-80
[10] = dose: 60.0 mg/kg/injection, schedule: Q01DX005 (ip), vehicle: Klucel (hydroxypropylcellulose) (HPC)
[11] = dose: 120.0 mg/kg/injection, schedule: Q01DX005 (ip), vehicle: Klucel (hydroxypropylcellulose) (HPC)
[12] = dose: 240.0 mg/kg/injection, schedule: Q01DX005 (ip), vehicle: Klucel (hydroxypropylcellulose) (HPC)
[13] = dose: 50.0 mg/kg/injection, schedule: Q01DX009 (ip), vehicle: Klucel (hydroxypropylcellulose) (HPC)
[14] = dose: 100.0 mg/kg/injection, schedule: Q01DX009 (ip), vehicle: Klucel (hydroxypropylcellulose) (HPC)
[15] = dose: 60.0 mg/kg/injection, schedule: Q01DX005 (ip), vehicle: saline with Tween-80
[16] = dose: 200.0 mg/kg/injection, schedule: Q01DX009 (ip), vehicle: Klucel (hydroxypropylcellulose) (HPC)
[17] = dose: 50.0 mg/kg/injection, schedule: Q01DX005 (ip), vehicle: saline
[18] = dose: 100.0 mg/kg/injection, schedule: Q01DX005 (ip), vehicle: saline
[19] = dose: 200.0 mg/kg/injection, schedule: Q01DX005 (ip), vehicle: saline

Measured: T/C

NC1=C(Br)C(=O)c2[nH]c(=O)[nH]c(=O)c2C1=O
inactive: dose: 6.25 mg/kg/injection, schedule: Q01DX005 (ip), vehicle: Klucel (hydroxypropylcellulose) (HPC) 98 % of control | dose: 12.5 mg/kg/injection, schedule: Q01DX005 (ip), vehicle: Klucel (hydroxypropylcellulose) (HPC) 100 % of control | [1] 102 % of control | [2] 100 % of control

Cc1cc2cc3c(=O)[nH]c(=O)nc-3n(CC(O)C(O)C(O)CO)c2cc1C (centres undefined)
inactive: [3] 101 % of control and 103 % of control | dose: 30.0 mg/kg/injection, schedule: Q01DX005 (ip), vehicle: saline with Tween-80 116 % of control and 98 % of control

CC(C)(O)C#CC(F)(F)C(F)(F)C(F)(F)C(F)(F)C(F)(F)C(F)(F)F
inactive: dose: 60.0 mg/kg/injection, schedule: Q01DX005 (ip), vehicle: saline 107 % of control | dose: 120.0 mg/kg/injection, schedule: Q01DX005 (ip), vehicle: saline 105 % of control | dose: 240.0 mg/kg/injection, schedule: Q01DX005 (ip), vehicle: saline 103 % of control

N#Cc1c(C(=O)NN)cc(-c2cccc3ccccc23)[nH]c1=O
inactive: [4] 107 % of control | [5] 103 % of control

O=C(N=C(N=C(c1ccccc1)N1CCCCC1)c1ccccc1)c1ccccc1
inactive: [6] 96 % of control | [7] 93 % of control | [8] 95 % of control

CCCCC(CC)C(=O)N1CCOCC1 (centres undefined)
inactive: dose: 100.0 mg/kg/injection, schedule: Q04DX003 (ip), vehicle: saline with Tween-80 100 % of control | dose: 200.0 mg/kg/injection, schedule: Q04DX003 (ip), vehicle: saline with Tween-80 100 % of control | dose: 400.0 mg/kg/injection, schedule: Q04DX003 (ip), vehicle: saline with Tween-80 100 % of control

CCC1OCC(C(Cl)CCl)O1 (centres undefined)
inactive: [4] 102 % of control | [5] 111 % of control | dose: 132.0 mg/kg/injection, schedule: Q01DX009 (ip), vehicle: saline with Tween-80 100 % of control | [9] 103 % of control | [8] 118 % of control | dose: 300.0 mg/kg/injection, schedule: Q01DX009 (ip), vehicle: saline with Tween-80 118 % of control

CSC(=S)NNC(C)c1nccc2ccccc12 (centres undefined)
inactive: [4] 109 % of control | [5] 114 % of control | [9] 108 % of control

O=C1OC(c2ccccc2)N(c2ccccc2)C(=O)C1Cc1ccccc1 (centres undefined)
inactive: [10] 103 % of control | [11] 98 % of control | [12] 110 % of control

COC(=O)CC1(C(=O)OC)C2=C(CCC2)N2CCCC21 (centres undefined)
inactive: dose: 12.5 mg/kg/injection, schedule: Q01DX009 (ip), vehicle: Klucel (hydroxypropylcellulose) (HPC) 101 % of control | dose: 25.0 mg/kg/injection, schedule: Q01DX009 (ip), vehicle: Klucel (hydroxypropylcellulose) (HPC) 103 % of control | [13] 97 % of control | [14] 93 % of control

COCC(O)Cn1ccnc1N=Nc1ccccc1 (centres undefined)
inactive: [15] 103 % of control | dose: 120.0 mg/kg/injection, schedule: Q01DX005 (ip), vehicle: saline with Tween-80 102 % of control

O=C(Cc1ccc(-c2ccccc2)cc1)Nc1ccccn1
inactive: [6] 99 % of control | [7] 108 % of control | [8] 105 % of control

COCCC1CN(C(C)C)C(=O)C1(c1ccccc1)c1ccccc1 (centres undefined)
inactive: [13] 106 % of control | [14] 92 % of control | [16] 108 % of control

CCCNc1cc(C)cc2[nH]c(C)nc12
inactive: [1] 103 % of control | [2] 100 % of control | dose: 100.0 mg/kg/injection, schedule: Q01DX005 (ip), vehicle: Klucel (hydroxypropylcellulose) (HPC) 103 % of control | dose: 200.0 mg/kg/injection, schedule: Q01DX005 (ip), vehicle: Klucel (hydroxypropylcellulose) (HPC) 94 % of control

CCCCCC(=O)C(=O)c1ccc(O)cc1O
inactive: [13] 89 % of control | [14] 109 % of control | [16] 100 % of control

O=C(O)/C=C/C(=O)NNc1nc2ccccc2s1
inactive: [10] 97 % of control | [11] 96 % of control | [12] 89 % of control

COC(=O)C1C(O)C(C)C(O)C(C)/C=C\C=C(C)C(=O)Nc2c(C)c(OC(C)=O)c3c(c2O)C(=O)C(C)=C2OCOC(=C23)C(C)=CC(C)(O)C(O)C(C)C1O (centres undefined)
inactive: dose: 25.0 mg/kg/injection, schedule: Q01DX009 (ip), vehicle: saline 107 % of control | dose: 50.0 mg/kg/injection, schedule: Q01DX009 (ip), vehicle: saline 107 % of control | dose: 100.0 mg/kg/injection, schedule: Q01DX009 (ip), vehicle: saline 107 % of control | dose: 200.0 mg/kg/injection, schedule: Q01DX009 (ip), vehicle: saline 89 % of control

CC(C)n1c(Cl)c(C(=O)O)c2ccccc21
inactive: dose: 100.0 mg/kg/injection, schedule: Q04DX002 (ip), vehicle: saline with Tween-80 100 % of control | dose: 200.0 mg/kg/injection, schedule: Q04DX002 (ip), vehicle: saline with Tween-80 98 % of control | dose: 400.0 mg/kg/injection, schedule: Q04DX002 (ip), vehicle: saline with Tween-80 100 % of control

CCCCCCCCCCCCCCCCS(=O)(=O)N/N=C(/C)N(C)c1ccc(OC)cc1
inactive: [13] 107 % of control | [14] 107 % of control | [16] 111 % of control

O=C(O)C(CBr)CBr
inactive: dose: 25.0 mg/kg/injection, schedule: Q01DX009 (ip), vehicle: water 107 % of control | dose: 50.0 mg/kg/injection, schedule: Q01DX009 (ip), vehicle: water 106 % of control | dose: 100.0 mg/kg/injection, schedule: Q01DX009 (ip), vehicle: water 100 % of control

CN(C)CCNC1c2ccccc2-c2ccccc21
inactive: [17] 99 % of control | [18] 98 % of control | [19] 100 % of control

C1CCN(CCC[Si]23OCCN(CCO2)CCO3)C1
inactive: [4] 108 % of control | [5] 108 % of control | [9] 109 % of control

CC(C)(C)NCC(O)CSc1nc(-c2ccc(C(N)=O)s2)cs1 (centres undefined)
inactive: [6] 100 % of control | [7] 109 % of control | [8] 109 % of control

Cc1ccc(Nc2nc(N)nc3nc(N)c(C(N)=O)nc23)cc1
inactive: dose: 25.0 mg/kg/injection, schedule: Q01DX009 (ip), vehicle: saline with Tween-80 100 % of control | [6] 100 % of control | [7] 91 % of control

Cc1c(Br)sc2c1ccc1ccccc12
inactive: [6] 101 % of control | [7] 100 % of control | [8] 109 % of control

CN1CCC/C1=N\S(=O)(=O)/N=C1\CCCN1C
inactive: [17] 92 % of control | [18] 100 % of control | [19] 99 % of control

O=CNC(Cc1cnc[nH]1)C(=O)O (centres undefined)
inactive: [4] 100 % of control | [5] 98 % of control | [9] 97 % of control

CC(C)=CCCc1ccc2c(c1)C(=O)c1cc3c(cc1C2=O)OCO3
inactive: dose: 3.75 mg/kg/injection, schedule: Q01DX005 (ip), vehicle: saline with Tween-80 101 % of control | dose: 7.5 mg/kg/injection, schedule: Q01DX005 (ip), vehicle: saline with Tween-80 91 % of control | [3] 98 % of control and 104 % of control | [15] 87 % of control
